This is an account of results in publication PMC3535334 (Nature Communications, 2012).

This assay has as its target Nano-lantern (ATP1). The note with it: 20 nM protein, 50 mM HEPES pH 7.2, coelenterazine-h 1-10 μM.

One may read the Kd as the equilibrium constant for the complex coming apart. Regarding `Nc1ncnc2c1ncn2[C@@H]1O[C@H](COP(=O)(O)OP(=O)(O)OP(=O)(O)O)[C@@H](O)[C@H]1O` [ATP], the Kd is 300 µM.
